In one experiment the test system is Hartley male guinea pig. The experiment in a line: Nasal Blockage Model (intranasal pressure of OVA-sensitized guinea pigs). It counts as in vivo. The settings on record: 30 mg/kg orally 60 min before antigen exposure; intranasal pressure AUC 0-30 min vs vehicle. How it is done: Experiment Using Nasal Blockage Model
Recently, It has been paid an attention to a theory that PGD2 is one of causative substances of nasal blockage caused by allergic rhinitis, and proposed to develop an inhibitor of PGD2 biosynthesis or an antagonist to the PGD2 receptor as a drug reducing nasal blockage. Thus, as to the compounds of the present, invention. the anti-nasal blockage effect was evaluated by measuring the intranasal pressure of guinea pigs.
A 1% ovalbumin (OVA) solution was treated with an ultrasonic nebulizer to obtain an aerosol. Hartley male guinea pig was sensitized by inhaling the aerosol twice each or 10 min at one-week interval. Seven days after the sensitization, the guinea pig was exposed to an antigen to initiate the reaction. Briefly, the trachea of he guinea pig was incised under the anesthesia with pentobarbital (30 mg/kg. i.p.) and cannulas were inserted into the trachea at the pulmonary and nasal cavity sides. […] After arresting the spontaneous respiration of the guinea pig with Gallamin (2 mg/kg, i.v.), 4 ml/time of air was supplied to the snout side with an artificial respirator at the frequency of 70 times/min, and the atmospheric pressure required for the aeration was measured by using a transducer fitted at the branch. The measured pressure was used as a parameter of the nasal cavity resistance. […]

Experiment [1] has as its target T1, PGD2 Receptor (Homo sapiens, UniProt Q13258).
T1 construct: endogenous in cells; host or cells: washed human platelets from a healthy volunteer
T1 sequence (Q13258 1-359): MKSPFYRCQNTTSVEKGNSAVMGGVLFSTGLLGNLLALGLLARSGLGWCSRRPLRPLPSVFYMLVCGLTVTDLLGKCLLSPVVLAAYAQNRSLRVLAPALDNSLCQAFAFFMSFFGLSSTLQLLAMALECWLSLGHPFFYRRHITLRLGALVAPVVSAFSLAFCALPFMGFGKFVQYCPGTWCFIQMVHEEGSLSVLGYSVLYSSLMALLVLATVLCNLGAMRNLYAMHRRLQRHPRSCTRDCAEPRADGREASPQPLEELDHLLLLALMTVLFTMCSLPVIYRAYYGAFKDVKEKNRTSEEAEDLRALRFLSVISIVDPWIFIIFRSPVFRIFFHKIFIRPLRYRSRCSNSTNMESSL
The experiment in a line: Antagonistic Activity Against PGD2 Receptor Using Human Platelet (cAMP increased by PGD2). The settings on record: inhibition of cAMP increase by 0.1 μM PGD2 in washed human platelets. The experiment is classed as cell-based. How it is done: Experiment 2 Evaluation of Antagonistic Activity Against PGD2 Receptor Using Human Platelet
Peripheral blood was collected from a healthy volunteer using a syringe in which 1/9 volume of a citric acid/dextrose solution was previously added. The sample was subjected to centrifugation at 180 g for 10 min to obtain the supernatant (PRP: platelet rich plasma). The resultant PRP was washed 3 times with a washing buffer and the number of platelet was counted with a micro cell counter. A suspension adjusted to contain the platelets at a final concentration of 5×10^8 /ml was warmed at 37° C., then subjected to the pre-treatment with 3-isobutyl-1-methylxanthine (0.5 mM) for 5 min. To the suspension was added a test compound diluted at various concentration, and 10 minutes later, 0.1 μM PGD2 was added to induce the reaction 2 minutes later, hydrochloric acid was added to terminate the reaction. The platelet was destroyed with an ultrasonic homogenizer. After centrifugation, the cAMP in the supernatant was determined by radioimmunoassay. PGD2 receptor antagonism of a drug was evaluated as follows: the inhibition rate regarding cAMP increased by the addition of PGD2 was determined at each concentration, and the concentration of the (drug required for 50% inhibition (IC50) was calculated. The results are shown below.

Experiment [2] concerns the target T1, PGD2 Receptor. Description: Binding to PGD2 Receptor (human platelet membrane fraction, [3H]PGD2). The following applies: 5 nM [3H]PGD2, pH 7.4, 4° C., 90 min, read-out: Inhibitory activity IC50. As for the experimental part: (1) Preparation of Human Platelet Membrane Fraction
Blood was collected using a plastic syringe containing 3.8% sodium citrate from the vein of healthy volunteers (adult male and female), then put into a plastic test tube and mixed by slow-reversion. The sample was then centrifuged at 1800 rpm. for 10 min at room temperature, and the supernatant containing PRP (platelet-rich plasma) was collected. The PRP was re-centrifuged at 2300 rpm, for 22 min at room temperature to obtain platelets. The platelets were homogenized using a homogenizer (Ultra-Turrax) followed by centrifugation 3 times at 20,000 rpm, 10 min at 4° C. to obtain a platelet membrane fraction. After protein determination, the membrane fraction was adjusted to 2 mg/ml and preserved in a refrigerator at -80° C. until using for the binding test.
(2) Binding to PGD2 Receptor.
To a binding-reaction solution (50 mM Tris/HCl, pH 7.4, 5 mM MgCl2) (0.2 ml) were added the human platelet membrane fraction (0.1 mg) and 5 nM [^3 H ]PGD2 (115 Ci/mmol), and the mixture was reacted at 4° C. for 90 min. After the reaction, the mixture was filtered through a glass fiber filter paper and washed several times with cooled physiologic saline, then the radioactivity retained on the filter paper was measured. The specific-binding ratio was calculated by subtracting the non-specific binding ratio which is the radio activity similarly measured in the presence of 10 μM PGD2 from the total binding. The inhibitory activity of each compound was expressed as the concentration required for 50% inhibition (IC50), which was determined by depicting a substitution curve by plotting the binding ratio (%) in the presence of each compound, where the binding ratio in the absence of a test compound is 100%.

For a further experiment, the target named is T2, TXA2 Receptor (Homo sapiens, UniProt P21731).
T2 construct: The human platelet fraction was prepared in accordance with Experiment 1 (1); from tissue; host or cells: human platelets from blood of healthy volunteers (membrane fraction)
T2 sequence (P21731 1-343): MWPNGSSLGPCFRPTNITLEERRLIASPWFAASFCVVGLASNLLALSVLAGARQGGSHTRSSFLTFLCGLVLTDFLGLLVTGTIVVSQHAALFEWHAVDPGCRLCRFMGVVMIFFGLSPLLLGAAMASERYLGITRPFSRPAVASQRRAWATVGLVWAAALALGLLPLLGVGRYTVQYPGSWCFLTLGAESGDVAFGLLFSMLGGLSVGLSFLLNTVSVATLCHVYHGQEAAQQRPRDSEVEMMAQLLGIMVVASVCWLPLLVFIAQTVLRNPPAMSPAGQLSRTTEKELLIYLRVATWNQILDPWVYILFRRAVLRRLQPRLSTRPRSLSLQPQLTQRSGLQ
Description: Binding to TXA2 Receptor (human platelet membrane fraction, [3H](+)-S-145 sodium salt). The settings on record: 2 nM [3H](+)-S-145 sodium salt, pH 7.4, room temperature, 90 min, read-out: Inhibitory activity to TXA2 Receptor: IC50. How it is done: (I) Preparation of Human Platelet Membrane Fraction
The human platelet fraction was prepared in accordance with Experiment 1 (1).
(2) Binding to TXA2 Receptor
To a binding-reaction solution (50 mM Tris/HCl, pH 7.4. 10 mM MgCl2) (0.2 ml) were added the human platelet membrane fraction (0.05 mg) and 2 nM Sodium [^3 H](+)-(5Z)-7-[3-endo-[(phenylsulfonyl)aminol]bicyclo[2.2. 1]hept-2-exo-iy]heptenoate (Japanese Patent Publication (Kokoku) No.79060/1993, hereinafter referred to as (+)-S-145 sodium salt) (26.4 Ci/mmol), and the mixture was reacted at room temperature for 90 min. After the reaction, the resultant mixture was filtered through a glass fiber filter paper and washed several times with cooled physiological saline, then the radioactivity retained on the filter paper was measured. The specific-binding ratio was calculated by subtracting the non-specific binding ratio (the radio activity similarly determined in the presence of 10 μM (+)-S-145 sodium salt) from the total binding. The inhibitory activity of each compound was expressed as the concentration required for 50% inhibition (IC50), which was determined by depicting a substitution curve by plotting the binding ratio (%) in the presence of each compound, where the binding ratio in the absence of a test compound is 100%.

What is called IC50 is the midpoint of a concentration-inhibition curve. On to `O=C(O)CCC/C=C\C[C@H]1[C@@H]2CC[C@@H](C2)[C@@H]1NC(=O)c1csc2ccc(O)cc12` [Compd. 1, (5Z)-7-{(1R, 2S, 3S, 4S)-3-(5-Hydroxybenzo[b]thiophen-3-carbonylamino)-bicyclo[2.2. 1]hept-2-yl}-5-heptenoic acid], for which the “Inhibitory Rate (%)” value in the experiment with Hartley male guinea pig amounted to 74%. Besides, the 50% inhibitory concentration (IC50) against PGD2 Receptor [1] amounted to 3.9 nM; at PGD2 Receptor [2] it was 9.6 nM.
`O=C(O)CCC/C=C\C[C@H]1[C@@H]2CC[C@@H](C2)[C@@H]1NC(=O)c1ccsc1` [Compd. 2, (5Z)-7-{(1R, 2S, 3S, 4S)-3-(Thiophen-3-carbonylamino)-bicyclo[2.2.1]hept-2-yl}-5-heptenoic acid]: the IC50 against PGD2 Receptor [1] amounted to 360 nM; on PGD2 Receptor [2] it was 31 nM.
As to `O=C(O)CCC/C=C\C[C@H]1[C@@H]2CC[C@@H](C2)[C@@H]1NC(=O)c1cccc2ccsc12` [Compd. 3, (5Z)-7-{(1R, 2S, 3S, 4S)-3-(Benzo[b]thiophen-7-carbonylamino)-bicyclo[2.2. 1]hept-2-yl}-5-heptenoic acid], the figures for the half-inhibitory concentration (IC50) at PGD2 Receptor [1] and on PGD2 Receptor [2] were 22 nM and 87 nM, respectively.
`O=C(O)CCC/C=C\C[C@H]1[C@@H]2CC[C@@H](C2)[C@@H]1NC(=O)c1csc2ccccc12` [Compd. 4, (5Z)-7-{(1R, 2S, 3S, 4S)-3-(Benzo[b]thiophen-3-carbonylamino)-bicyclo[2.2. 1]hept-2-yl}-5-heptenoic acid]: the IC50 was 3800 nM on TXA2 Receptor, 41 nM against PGD2 Receptor [1] and 8.2 nM at PGD2 Receptor [2].
As for `O=C(O)CCC/C=C\C[C@H]1[C@@H]2CC[C@@H](C2)[C@@H]1NC(=O)c1csc2ccc(F)cc12` [Compd. 5, (5Z)-7-{(1R, 2S, 3S, 4S)-3-(5-Fluorobenzo[b]thiophen-3-carbonylamino)-bicyclo[2.2. 1]hept-2-yl}-5-heptenoic acid], the IC50 is 34 nM against PGD2 Receptor [1] and 57 nM on PGD2 Receptor [2].
The matching figures for `O=C(O)CCC/C=C\C[C@H]1[C@@H]2CC[C@@H](C2)[C@@H]1NC(=O)c1csc2cc(O)ccc12` [Compd. 6]: 8.2 nM and 180 nM.
As for `O=C(O)CCC/C=C\C[C@@H]1[C@H]2CC[C@H](C2)[C@H]1NC(=O)c1csc2ccc(O)cc12` [Compd. 18, (5Z)-7-{(1S, 2R, 3R, 4R)-3-(5-Hydroxybenzo[b]thiophen-3-carbonylamino)-bicyclo[2.2. 1]hept-2-yl}-5-heptenoic acid], the figures for the IC50 on TXA2 Receptor, on PGD2 Receptor [1] and at PGD2 Receptor [2] were 1800 nM, over 1000 nM and 5.5 nM, respectively.

These data come from patent publication US6225336A, “Compounds having [2.2.1] bicyclo skeleton” (Shionogi & Co., Ltd., priority 1997, dated 2001).
